The values below come from US10238630B2, “Use of eribulin and poly (ADP ribose) polymerase (PARP) inhibitors as combination therapy for the treatment of cancer” (Eisai R&D Management Co., Ltd., priority 2014, dated 2019).

For test [1], the system named is MDA-MB-231 human breast cancer xenografts. The test can be described thus: Antitumor activity against subcutaneous MDA-MB-231 human breast cancer xenografts in athymic mice (two studies). The class given is in vivo. How it is done:
MDA-MB-231 human triple negative breast cancer cells are wild type for BRCA1 and 2 and PTEN. Cells were maintained in monolayer cultures in RPMI-1640 growth medium supplemented with 10% fetal bovine serum at 37° C. in a 5% CO2 humidified incubator. On the day of inoculation, cells were harvested by trypsinization, washed, and resuspended in ice-cold PBS. Female immunodeficient athymic mice were inoculated subcutaneously near the right axillary area with MDA-MB-231 cells (5×10^6) in a 1:1 ratio (50 μL each) with Matrigel™ in a volume of 0.1 mL in phosphate buffered saline, using a 26-gauge needle. A total of 94 mice, approximately 6 weeks old were implanted with MDA-MB-231 cells.
E7449, carboplatin and E7389 were evaluated as single agents and in combination for antitumor activity against MDA-MB-231 human breast cancer xenografts in athymic mice. The first experiment consisted of a vehicle control group, an E7449 single agent group, 2 groups treated with single agent E7389 and 2 combination drug-treated groups (Table 5). Thirty-nine mice were inoculated with MDA-MB-231 cells and on Day 21 following implantation, tumor volumes were measured and mice were randomized into the 6 treatment groups based on tumor volume (average of 300 mm^3). Following randomization drug treatment was initiated. Each group was composed of 5 mice for a total of 30 mice on the first day of treatment. E7449 was formulated in 0.5% methyl cellulose and orally administered once daily for 28 days at 100 mg/kg based on body weight at 0.1 mL per 10 g. E7389 was formulated in saline and was intravenously administered once every 4 days, 4 times (Day 21, 25, 29, and 33) at a dosage of 0.05 or 0.1 mg/kg as single agent or in combination with E7449, based on body weight at 0.1 mL per 10 g. The control group was treated with oral vehicle (0.5% methyl cellulose in water) daily and intravenous vehicle (saline) once every 4 days, 4 times. E7449 or vehicle was administered first and when dosing of all animals was complete E7389 was administered to animals receiving the combination.
The second experiment consisted of a vehicle control group, 2 groups treated with single agent E7449, 2 groups treated with single agent carboplatin and 3 combination drug-treated groups (Table 6). Fifty five mice were inoculated with MDA-MB-231 cells and on Day 18 following implantation, tumor volumes were measured and mice were randomized into 8 treatment groups based on tumor volume (average of 300 mm^3). Following randomization drug treatment was initiated. Each group consisted of 5 mice for a total of 40 mice on the first day of treatment. E7449, formulated in 0.5% methyl cellulose was orally administered daily for 28 days, at 60 or 100 mg/kg based on body weight at 0.1 mL per 10 g. Carboplatin was formulated in saline and was intravenously administered once on the first day of treatment (Day 18) at a dosage of 15 or 60 mg/kg as a single agent or in combination with E7449 based on body weight at 0.1 mL per 10 g. The control group was treated with oral vehicle (0.5% methyl cellulose in water) daily and intravenous vehicle (saline) once on Day 18. E7449 or vehicle was administered first and when dosing of all animals was complete carboplatin was administered to animals receiving the combination.
Drug treatment was initiated 21 or 18 days post tumor implantation, in the E7389 and carboplatin combination studies respectively, and continued for 28 days. […]
For orientation: In xenograft studies the graft and the host belong to different species.

The subject of another test is BR1282. The test can be described thus: Antitumor effect in patient-derived xenograft (PDx) BR1282 of triple negative breast cancer in athymic mice. The class given is in vivo, human.
Another test relates to total Akt levels. The test can be described thus: Pharmacodynamic biomarker analysis of total Akt and PI3K pathway proteins in tumor lysates by reverse phase protein microarray (RPMA). The class given is in vivo. How it is done: Multiple proteins in the P13K pathway were assessed by reverse phase protein microarray (RPMA) in tumor lysates. Akt levels decreased in all models except MDA-MB-231 (wild type for BRCA1 and 2 and PTEN) following single agent and combination treatments. This effect is specific for Akt as no changes in total PI3K, Erk, or Src were observed. Phosphorylated Akt (S473 & T308) decreased by E7389 and combination treatment at 48 hours in MDA-MB-468 tumors. […] No significant effects of treatment were observed on phosphorylated Src (Y527) levels in any tumor models.

Where [2] appears, read: HCC1806 tumors, early time points.

SMILES strings stand for the structures. Entries after “also recorded” stand apart in the source; their conditions may differ. Structures can show the parent of a compound that is named as a salt.

`C=C1C[C@@H]2CC[C@@]34C[C@H]5OC6[C@@H](O[C@H]7CC[C@H](CC(=O)C[C@@H]8[C@@H](OC)[C@@H](C[C@H](O)CN)O[C@H]8C[C@H]8O[C@@H](CC[C@@H]1O2)C[C@@H](C)C8=C)O[C@@H]7[C@@H]6O3)[C@H]5O4` [E7389, 11, 15:18,21:24,28-triepoxy-7,9-ethano-12,15-methano-9H,15H-furo[3,2-i]furo[2′,3′:5,6]pyrano[4,3-b] [1,4]dioxacyclopentacosin-5(4H)-one, 2-[(2S)-3-amino-2-hydroxypropyl]hexacosahydro-3-methoxy-26-methyl-20,27-bis(methylene)-, (2R,3R,3aS,7R,8aS,9S,10aR,11S,12R,13aR,13bS,15S,18S,21S,24S,26R,28R,29aS)-methanesulfonate (salt)]: the “inhibition of tumor growth versus vehicle” value in test [1] (E7389 0.1 mg/kg IV Q4Dx4, single agent, P<0.05 on Day 42, 0.1 mg/kg) is recorded as “statistically significant effect; also recorded: Statistically significant inhibition of tumor growth”. Besides, the “antitumor effect (tumor volume), dose dependence” value in test [1] (E7389 0.05 and 0.1 mg/kg IV Q4Dx4, single agent) is reported as “Dose dependent antitumor activity”. Also, the “antitumor effect (tumor growth)” value with BR1282 (E7389 0.3 mg/kg, single agent) is listed as “inhibited tumor growth to a similar degree”; in the test on BR1282 (E7389 single agent, 0.1 mg/kg (dose as read from the sentence)), “had no impact on the tumor growth”. Further, in the test on total Akt levels (MDA-MB-468 tumors, 48 hours), the “phosphorylated Akt (S473 & T308)” value is on record as “decreased”.

In the case of `O=c1[nH]nc2c3c(cccc13)N=C(CN1Cc3ccccc3C1)N2` [E7449], the “antitumor effect (tumor volume)” value in test [1] (E7389 combination study, E7449 100 mg/kg PO QDx28, single agent, 100 mg/kg) is reported as “did not significantly inhibit tumor growth; also recorded: No antitumor activity”. Also, the “antitumor effect (tumor volume)” value in test [1] (carboplatin combination study, E7449 60 or 100 mg/kg PO QDx28, single agent) is on record as “did not significantly inhibit tumor growth; also recorded: No antitumor activity”. The “antitumor effect (tumor growth)” value in the test on BR1282 (E7449 single agent) is given as “had no impact on the tumor growth”. Further, in the test on total Akt levels (setting [2]), the “phosphorylated Akt (S473 & T308)” value was “Increased” and the “phosphorylated Erk (T202/Y204)” value is “Increased”.
